Test results as given in patent US20260191968A1, “PROTAC DEGRADERS OF MLLT1 AND/OR MLLT3” (DARK BLUE THERAPEUTICS LTD, priority 2024, published 2026).

Columns and labels:
Assay type in all cases: cell-based
[1] = tested on: MV4-11 cells; assay: MV4-11 cellular proliferative assay, Assay Format A (CellTiter-Glo, 120 hours); details: Homo sapiens
Method: An MV4-11 proliferation assay was used to test the ability of compounds to reduce cell viability. MV4-11 cells (ATCC #CRL9591) were grown in IMDM medium (11510596, Gibco) supplemented with 10% fetal bovine serum (F7524, Gibco) and 1% Penicillin/Streptomycin (15140-122, Gibco) at 37° C. with 5% CO2. Cells were seeded in 384-well Elplasia plates (4447, Corning) at a density of 50 cells/well and treated with vehicle (DMSO) or compounds (10 serial semi-log dilutions, 30 μM as top concentration).
After 120 hours of treatment, cells were incubated for 10 min at RT with the CellTiter-Glo (CTG) reagent (G7571, Promega). Measurement of the luminescence signal was performed on a microplate reader (Ensight, PerkinElmer). CTG reagent measures the amount of ATP, which is directly proportional to the number of cells, to determine the number of viable cells in culture.
The data were analysed as follows:
where x is the measured raw signal value of a well, (cr) is the median of the measured signal values for the Central Reference (DMSO) wells on a plate, (sr) is the median of the measured signal values for the Scale Reference (reference compound) wells on a plate.
where the experimental set-up assumes the Hill parameters in certain ranges: S0~Central Reference (CR) from normalization (=Bottom), Sinf~Scale Reference (SR) from normalization (=Top), nHill~1, AC50~within the measured concentration range.

[2] = target: T1, MLLT1 (Homo sapiens, UniProt Q03111); assay: MLLT1 degradation assay in MV4-11 cells (JESS chemiluminescent detection), three concentrations, 24 h; details: with respect to DMSO control
T1 construct: host or cells: MV4-11
T1 sequence (Q03111 1-559): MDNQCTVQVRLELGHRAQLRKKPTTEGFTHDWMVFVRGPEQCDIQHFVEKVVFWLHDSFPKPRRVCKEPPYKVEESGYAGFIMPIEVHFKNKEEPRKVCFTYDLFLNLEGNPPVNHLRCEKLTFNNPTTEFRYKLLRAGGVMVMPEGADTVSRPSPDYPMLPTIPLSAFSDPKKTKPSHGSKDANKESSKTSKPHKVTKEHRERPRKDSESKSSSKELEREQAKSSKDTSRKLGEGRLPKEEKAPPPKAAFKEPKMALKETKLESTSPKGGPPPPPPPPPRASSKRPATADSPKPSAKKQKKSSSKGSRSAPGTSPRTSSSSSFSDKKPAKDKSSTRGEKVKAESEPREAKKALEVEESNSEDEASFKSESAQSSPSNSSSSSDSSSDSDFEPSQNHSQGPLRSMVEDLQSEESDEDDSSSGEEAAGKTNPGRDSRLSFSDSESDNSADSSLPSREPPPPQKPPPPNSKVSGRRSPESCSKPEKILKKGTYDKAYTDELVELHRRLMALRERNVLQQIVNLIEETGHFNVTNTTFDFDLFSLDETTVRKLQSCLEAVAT
In short: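 Read-out is % MLLT1 degradation versus DMSO, from band peak areas on a JESS chemiluminescent system. Cells (MV4-11) were exposed for 24 h at 37° C to three compound levels, 10, 100 and 1000 nM, in 0.1% DMSO.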

[3] = tested on: MV4-11 cells; assay: MV4-11 cellular proliferative assay, Assay Format B (CTG 2.0, 168 h); details: Homo sapiens, 168 h (7 days), CTG 2.0, read-out: IC50 (MV4-11 cellular proliferative assay, Assay format B)
In short: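 Viability read by CellTiter-Glo 2.0 luminescence after 7-day (168 h) compound exposure of MV4-11 cells in IMDM/10% FBS. Ten 3-fold concentrations starting at 1 uM or 100 nM, 0.3% final DMSO; curves normalised to DMSO control, four-parameter fit.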

IC50 [1] [µM]	MLLT1% Degradation @ 0.01 μM [2]	MLLT1% Degradation @ 0.1 μM [2]	MLLT1% Degradation @ 1 μM [2]	IC50 [3] [µM]	SMILES
	A (Category A: A ≥ 75% degradation)	A (Category A: A ≥ 75% degradation)	A (Category A: A ≥ 75% degradation)	≤ 0.1	CN1CCC[C@@H]1c1cc2cnc(NC(=O)c3ccc(CCCc4ccc(-c5cccc6c5CN(C5CCC(=O)NC5=O)C6=O)cc4)cc3)cc2[nH]1 (stereo partly drawn) [Example 199, 4-(3-(4-(2-(2,6-dioxopiperidin-3-yl)-1-oxoisoindolin-4-yl)phenyl)propyl)-N-(2-((R)-1-methylpyrrolidin-2-yl)-1H-pyrrolo[3,2-c]pyridin-6-yl)benzamide]
	A (Category A: A ≥ 75% degradation)	A (Category A: A ≥ 75% degradation)	A (Category A: A ≥ 75% degradation)	≤ 0.1	CN1CCC[C@@H]1c1cc2cnc(NC(=O)c3ccc(OCCc4ccc(-c5cccc6c5CN(C5CCC(=O)NC5=O)C6=O)cc4)cc3F)cc2[nH]1 (stereo partly drawn) [Example 207, 4-(4-(2-(2,6-dioxopiperidin-3-yl)-1-oxoisoindolin-4-yl)phenethoxy)-2-fluoro-N-(2-((R)-1-methylpyrrolidin-2-yl)-1H-pyrrolo[3,2-c]pyridin-6-yl)benzamide]
	A (Category A: A ≥ 75% degradation)	A (Category A: A ≥ 75% degradation)	A (Category A: A ≥ 75% degradation)	≤ 0.1	CN1CCC[C@@H]1c1cc2cnc(NC(=O)c3ccc(OCCCC4CCN(c5cccc6c5CN(C5CCC(=O)NC5=O)C6=O)CC4)cc3F)cc2[nH]1 (stereo partly drawn) [Example 209, 4-(3-(1-(2-(2,6-dioxopiperidin-3-yl)-1-oxoisoindolin-4-yl)piperidin-4-yl)propoxy)-2-fluoro-N-(2-((R)-1-methylpyrrolidin-2-yl)-1H-pyrrolo[3,2-c]pyridin-6-yl)benzamide]
	A (Category A: A ≥ 75% degradation)	A (Category A: A ≥ 75% degradation)	A (Category A: A ≥ 75% degradation)	≤ 0.1	CN1CCC[C@@H]1c1cc2cnc(NC(=O)c3ccc(-c4cnn(CCCC5CCN(c6cccc7c6C(=O)N(C6CCC(=O)NC6=O)C7=O)CC5)c4)cn3)cc2[nH]1 (stereo partly drawn) [Example 211, 5-(1-(3-(1-(2-(2,6-dioxopiperidin-3-yl)-1,3-dioxoisoindolin-4-yl)piperidin-4-yl)propyl)-1H-pyrazol-4-yl)-N-(2-((R)-1-methylpyrrolidin-2-yl)-1H-pyrrolo[3,2-c]pyridin-6-yl)picolinamide]
	A (Category A: A ≥ 75% degradation)	A (Category A: A ≥ 75% degradation)	A (Category A: A ≥ 75% degradation)	≤ 0.1	CN1CCC[C@@H]1c1cc2cnc(NC(=O)c3ccc(-c4cnn(CCCC5CCN(c6cccc7c6CN(C6CCC(=O)NC6=O)C7=O)CC5)c4)cc3F)cc2[nH]1 (stereo partly drawn) [Example 212, 4-(1-(3-(1-(2-(2,6-dioxopiperidin-3-yl)-1-oxoisoindolin-4-yl)piperidin-4-yl)propyl)-1H-pyrazol-4-yl)-2-fluoro-N-(2-((R)-1-methylpyrrolidin-2-yl)-1H-pyrrolo[3,2-c]pyridin-6-yl)benzamide]
	A (Category A: A ≥ 75% degradation)	A (Category A: A ≥ 75% degradation)	A (Category A: A ≥ 75% degradation)	≤ 0.1	CN1CCC[C@@H]1c1cc2cnc(NC(=O)c3cc(F)c(OCCC4CCN(c5cccc6c5CN(C5CCC(=O)NC5=O)C6=O)CC4)cc3F)cc2[nH]1 (stereo partly drawn) [Example 230, 4-(2-(1-(2-(2,6-dioxopiperidin-3-yl)-1-oxoisoindolin-4-yl)piperidin-4-yl)ethoxy)-2,5-difluoro-N-(2-((R)-1-methylpyrrolidin-2-yl)-1H-pyrrolo[3,2-c]pyridin-6-yl)benzamide]

Further lines, the compound ahead of its results:

SMILES	IC50 [1] [µM]	MLLT1% Degradation @ 0.01 μM [2]	MLLT1% Degradation @ 0.1 μM [2]	MLLT1% Degradation @ 1 μM [2]	IC50 [3] [µM]
CN1CCC[C@@H]1c1cc2cnc(NC(=O)CCCC3CN(c4cccc5c4C(=O)N(C4CCC(=O)NC4=O)C5=O)C3)cc2[nH]1 (stereo partly drawn) [Example 48, 4-(1-(2-(2,6-dioxopiperidin-3-yl)-1,3-dioxoisoindolin-4-yl)azetidin-3-yl)-N-(2-((R)-1-methylpyrrolidin-2-yl)-1H-pyrrolo[3,2-c]pyridin-6-yl)butanamide]	≤ 0.1				
CN1CCC[C@@H]1c1cc2cnc(NC(=O)c3ccc(OCCC4CCN(c5cccc6c5CN(C5CCC(=O)NC5=O)C6=O)CC4)c(F)c3)cc2[nH]1 (stereo partly drawn) [Example 206, 4-(2-(1-(2-(2,6-dioxopiperidin-3-yl)-1-oxoisoindolin-4-yl)piperidin-4-yl)ethoxy)-3-fluoro-N-(2-((R)-1-methylpyrrolidin-2-yl)-1H-pyrrolo[3,2-c]pyridin-6-yl)benzamide]		A (Category A: A ≥ 75% degradation)	A (Category A: A ≥ 75% degradation)	A (Category A: A ≥ 75% degradation)	≤ 0.1
CN1CCC[C@@H]1c1cc2cnc(NC(=O)c3ccc(-c4cnn(CCCC5CCN(c6cccc7c6C(=O)N(C6CCC(=O)NC6=O)C7=O)CC5)c4)cc3F)cc2[nH]1 (stereo partly drawn) [Example 210, 4-(1-(3-(1-(2-(2,6-dioxopiperidin-3-yl)-1,3-dioxoisoindolin-4-yl)piperidin-4-yl)propyl)-1H-pyrazol-4-yl)-2-fluoro-N-(2-((R)-1-methylpyrrolidin-2-yl)-1H-pyrrolo[3,2-c]pyridin-6-yl)benzamide]		B (Category B: 50% ≤ B < 75% degradation)	A (Category A: A ≥ 75% degradation)	A (Category A: A ≥ 75% degradation)	≤ 0.1
CN1CCC[C@@H]1c1cc2cnc(NC(=O)c3ccc(OCCCC#Cc4cccc5c4CN(C4CCC(=O)NC4=O)C5=O)cc3F)cc2[nH]1 (stereo partly drawn) [Example 213, 4-((5-(2-(2,6-dioxopiperidin-3-yl)-1-oxoisoindolin-4-yl)pent-4-yn-1-yl)oxy)-2-fluoro-N-(2-((R)-1-methylpyrrolidin-2-yl)-1H-pyrrolo[3,2-c]pyridin-6-yl)benzamide]		A (Category A: A ≥ 75% degradation)	A (Category A: A ≥ 75% degradation)	A (Category A: A ≥ 75% degradation)	≤ 0.1
CN1CCC[C@@H]1c1cc2cnc(NC(=O)c3ccc(OCCC4CCN(c5cccc6c5CN(C5CCC(=O)NC5=O)C6=O)CC4)cn3)cc2[nH]1 (stereo partly drawn) [Example 216, 5-(2-(1-(2-(2,6-dioxopiperidin-3-yl)-1-oxoisoindolin-4-yl)piperidin-4-yl)ethoxy)-N-(2-((R)-1-methylpyrrolidin-2-yl)-1H-pyrrolo[3,2-c]pyridin-6-yl)picolinamide]		A (Category A: A ≥ 75% degradation)	A (Category A: A ≥ 75% degradation)	A (Category A: A ≥ 75% degradation)	≤ 0.1
CN1CCC[C@@H]1c1cc2cnc(NC(=O)c3ccc(OCCC4CCN(c5cccc6c5CN(C5CCC(=O)NC5=O)C6=O)CC4)c(F)c3F)cc2[nH]1 (stereo partly drawn) [Example 231, 4-(2-(1-(2-(2,6-dioxopiperidin-3-yl)-1-oxoisoindolin-4-yl)piperidin-4-yl)ethoxy)-2,3-difluoro-N-(2-((R)-1-methylpyrrolidin-2-yl)-1H-pyrrolo[3,2-c]pyridin-6-yl)benzamide]		A (Category A: A ≥ 75% degradation)	A (Category A: A ≥ 75% degradation)	A (Category A: A ≥ 75% degradation)	≤ 0.1
